Assay results from article PMC10222328 (Pharmaceuticals, 2023).

Columns and labels:
[1] = system: carrageenan-induced rat paw edema; experiment: Carrageenan-induced rat paw edema model; assay type: in vivo, Wistar albino rats; settings: for Rat paw thickness: mean ± SD; for inhibition in vivo at 2.5 mg/kg / inhibition in vivo at 5 mg/kg / inhibition in vivo at 10 mg/kg: Rattus norvegicus, po
Experimental: In vivo assessment of anti-inflammatory activity of compounds 1–7 was conducted in the carrageenan-induced rat paw edema model. Inflammation in all rats was induced by an intraplantar injection of […] of 0.5% carrageenan saline in the left hind paw. Two hundred male Wistar albino rats (180–210 g) were divided into seven experimental (n = 168 rats, 8 rats per subgroup) and two control groups (n = 32 rats, 8 rats per subgroup).
Experimental groups involved rats that received compounds 1–7, and they were divided into three subgroups: rats received compounds 1–7 per os in three doses (2.5 mg/kg, 5 mg/kg, and 10 mg/kg) dissolved in 1% DMSO for 60 min before inducing inflammation.
In order to quantify the anti-inflammatory effect, the thickness of the left paw tissue of each rat was measured at the following time intervals: immediately before inducing inflammation (moment 0) and 1, 2, 3, and 4 h (moments 1, 2, 3, and 4) after inflammation. Tissue thickness was measured in the middle of the rat paw using a digital vernier caliper (Aerospace, Beijing, China).

[2] = Acute oral toxicity evaluation in rats; assay type: in vivo, Wistar albino rats; settings: single oral dose 10 mg/kg, after 14 days, (absolute organ weight × 100%)/body weight
Experimental: Healthy male rats (n = 24, three rats per group, body weight 180–200 g) were used for conducting an acute oral toxicity study. Animals were divided into the following groups: a control group that included rats that received a single dose of 1% DMSO and experimental groups that involved rats that received compounds 1–7 in the single dose of 10 mg/kg.
After oral administration of the aforementioned agents, rats were kept in single cages and monitored during 14 days. Food and water intake, as well as body weight, were measured daily. All the behavioral changes and any signs of toxicity were monitored daily during 2-week protocol (fur and skin, eyes, salivation, respiration, urination (color), faeces consistency, somatomotor activity, and other alterations in behavior pattern). After accomplishing 14 days, animals were sacrificed and organ weight (liver, kidney, stomach, and heart) was recorded. Relative organ weight was calculated as follows:(absolute organ weight × 100%)/body weight of rat on the day of sacrifice.(1)

5-LOX = target: T1, 5-LOX (Homo sapiens, UniProt P09917); experiment: Fluorometric 5-LOX inhibitor screening kit; assay type: biochemical; settings: mean ± standard error of two measurements; for inhibition at 10 µM: read-out: 5-LOX Percent of Inhibition
T1 construct: purchased Abcam, UK
T1 sequence (P09917 1-674): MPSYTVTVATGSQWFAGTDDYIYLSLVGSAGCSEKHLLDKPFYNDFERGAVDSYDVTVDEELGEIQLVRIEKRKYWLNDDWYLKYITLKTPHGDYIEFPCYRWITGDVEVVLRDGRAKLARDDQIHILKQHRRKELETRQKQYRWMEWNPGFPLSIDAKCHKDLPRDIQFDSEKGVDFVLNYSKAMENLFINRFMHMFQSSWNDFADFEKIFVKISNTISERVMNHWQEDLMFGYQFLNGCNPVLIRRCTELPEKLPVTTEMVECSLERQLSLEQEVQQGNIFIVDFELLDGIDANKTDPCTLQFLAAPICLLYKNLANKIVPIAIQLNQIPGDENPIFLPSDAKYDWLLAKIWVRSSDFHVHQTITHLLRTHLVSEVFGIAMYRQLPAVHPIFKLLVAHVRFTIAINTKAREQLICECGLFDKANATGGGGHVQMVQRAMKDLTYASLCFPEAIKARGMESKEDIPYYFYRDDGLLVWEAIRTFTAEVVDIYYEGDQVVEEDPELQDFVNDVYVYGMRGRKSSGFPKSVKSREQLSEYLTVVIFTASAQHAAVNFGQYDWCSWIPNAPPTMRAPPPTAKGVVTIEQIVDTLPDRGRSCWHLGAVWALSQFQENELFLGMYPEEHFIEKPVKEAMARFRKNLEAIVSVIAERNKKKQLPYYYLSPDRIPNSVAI
Experimental: COX-2 and 5-LOX inhibitory activities were tested using fluorometric COX-2 and 5-LOX inhibitor screening kits (Abcam, UK). These assays are based on the fluorometric detection of Prostaglandin G2 (a product generated by the COX enzyme) or on the fluorometric detection of intermediate generated by the 5-LOX enzyme. The experiments were conducted according to the manufacturers’ instructions.
For the determination of COX-2 inhibitory activity, tested compounds were dissolved in DMSO (5 mM stock solutions) and then diluted with the same solvent to obtain test solutions. Test solutions were further diluted 5X with COX assay buffer (2 µL of test solution and 8 µL COX assay buffer). […] Solvent control (SC) was prepared by adding 2 µL DMSO and 8 µL COX assay buffer, while sample (S) and enzyme control (EC) were prepared by adding 10 µL of diluted test solution and COX assay buffer, respectively, into assigned wells. For the determination of 5-LOX inhibitory activity, tested compounds were also dissolved in DMSO to prepare stock solutions with the same concentration (5mM), which were then diluted with the same solvent to obtain test solutions. Subsequently, test solutions were added to corresponding wells (2 µL).

[3] = 2.5 mg/kg per os, 1 h after carrageenan
[4] = 2.5 mg/kg per os, 2 h after carrageenan
[5] = 2.5 mg/kg per os, 3 h after carrageenan
[6] = 2.5 mg/kg per os, 4 h after carrageenan
[7] = 5.0 mg/kg per os, 1 h after carrageenan
[8] = 5.0 mg/kg per os, 2 h after carrageenan
[9] = 5.0 mg/kg per os, 3 h after carrageenan
[10] = 5.0 mg/kg per os, 4 h after carrageenan
[11] = 10.0 mg/kg per os, 1 h after carrageenan
[12] = 10.0 mg/kg per os, 2 h after carrageenan
[13] = 10.0 mg/kg per os, 3 h after carrageenan
[14] = 10.0 mg/kg per os, 4 h after carrageenan
[15] = 1 h, 2.5 mg/kg per os, 1 h after carrageenan
[16] = 1 h, 5.0 mg/kg per os, 1 h after carrageenan
[17] = 1 h, 10.0 mg/kg per os, 1 h after carrageenan
[18] = 2 h, 2.5 mg/kg per os, 2 h after carrageenan
[19] = 2 h, 5.0 mg/kg per os, 2 h after carrageenan
[20] = 2 h, 10.0 mg/kg per os, 2 h after carrageenan
[21] = 3 h, 2.5 mg/kg per os, 3 h after carrageenan
[22] = 3 h, 5.0 mg/kg per os, 3 h after carrageenan
[23] = 3 h, 10.0 mg/kg per os, 3 h after carrageenan
[24] = 4 h, 2.5 mg/kg per os, 4 h after carrageenan
[25] = 4 h, 5.0 mg/kg per os, 4 h after carrageenan
[26] = 4 h, 10.0 mg/kg per os, 4 h after carrageenan

| Compound | Rat paw thickness [1, 3] | Rat paw thickness [1, 4] | Rat paw thickness [1, 5] | Rat paw thickness [1, 6] | Rat paw thickness [1, 7] | Rat paw thickness [1, 8] | Rat paw thickness [1, 9] | Rat paw thickness [1, 10] | Rat paw thickness [1, 11] | Rat paw thickness [1, 12] | Rat paw thickness [1, 13] | Rat paw thickness [1, 14] | inhibition in vivo at 2.5 mg/kg [1, 15] | inhibition in vivo at 5 mg/kg [1, 16] | inhibition in vivo at 10 mg/kg [1, 17] | inhibition in vivo at 2.5 mg/kg [1, 18] | inhibition in vivo at 5 mg/kg [1, 19] | inhibition in vivo at 10 mg/kg [1, 20] | inhibition in vivo at 2.5 mg/kg [1, 21] | inhibition in vivo at 5 mg/kg [1, 22] | other results |
| --- | --- | --- | --- | --- | --- | --- | --- | --- | --- | --- | --- | --- | --- | --- | --- | --- | --- | --- | --- | --- | --- |
| COc1cccc(NC(=S)NC(=O)[C@@H](C)c2ccc3cc(OC)ccc3c2)c1 [Compound 4, (S)-2-(6-methoxynaphthalen-2-yl)-N-((3-methoxyphenyl)carbamothioyl)propanamide] | 5.93 ± 0.25 mm | 5.40 ± 0.10 mm | 5.17 ± 0.15 mm | 4.90 ± 0.10 mm | 6.10 ± 0.44 mm | 5.97 ± 0.25 mm | 5.70 ± 0.46 mm | 5.22 ± 0.50 mm | 6.00 ± 0.10 mm | 5.70 ± 0.20 mm | 5.30 ± 0.17 mm | 4.90 ± 0.20 mm | 21.6% | 29.9% | 27.1% | 37.2% | 28% | 32.6% | 37.9% | 28.8% | inhibition in vivo at 10 mg/kg [1, 23]: 41.5%; inhibition in vivo at 2.5 mg/kg [1, 24]: 40.5%; inhibition in vivo at 5 mg/kg [1, 25]: 43.2%; inhibition in vivo at 10 mg/kg [1, 26]: 54%; Relative organ weight, heart [2]: 0.30 ± 0.03; Relative organ weight, kidney [2]: 0.33 ± 0.07; Relative organ weight, liver [2]: 2.45 ± 0.15; Relative organ weight, stomach [2]: 0.50 ± 0.05; inhibition at 10 µM (5-LOX): 77.2 ± 0.26%; IC50 (5-LOX): 0.3 ± 0.12 µM |
| COC(=O)[C@H](Cc1cn(C)c2ccccc12)NC(=S)NC(=O)[C@@H](C)c1ccc2cc(OC)ccc2c1 [Compound 7, Methyl-N^α-(((S)-2-(6-methoxynaphthalen-2-yl)propanoyl)carbamothioyl)-1-methyltryptophanate] | 7.03 ± 0.15 mm | 6.47 ± 0.21 mm | 6.10 ± 0.20 mm | 5.87 ± 0.21 mm | 7.10 ± 0.17 mm | 6.80 ± 0.20 mm | 6.43 ± 0.32 mm | 6.03 ± 0.61 mm | 6.87 ± 0.25 mm | 6.50 ± 0.36 mm | 6.03 ± 0.21 mm | 5.47 ± 0.38 mm | 21.6% | 24.4% | 14.8% | 38.7% | 29.5% | 21.8% | 47% | 36.1% | inhibition in vivo at 10 mg/kg [1, 23]: 32.4%; inhibition in vivo at 2.5 mg/kg [1, 24]: 49.4%; inhibition in vivo at 5 mg/kg [1, 25]: 47.1%; inhibition in vivo at 10 mg/kg [1, 26]: 54.1%; Relative organ weight, heart [2]: 0.33 ± 0.03; Relative organ weight, kidney [2]: 0.29 ± 0.03; Relative organ weight, liver [2]: 2.64 ± 0.46; Relative organ weight, stomach [2]: 0.50 ± 0.04; inhibition at 10 µM (5-LOX): 20.7 ± 4.19% |
| CCOc1ccc(NC(=S)NC(=O)[C@@H](C)c2ccc3cc(OC)ccc3c2)cc1 [Compound 3, (S)-N-((4-ethoxyphenyl)carbamothioyl)-2-(6-methoxynaphthalen-2-yl)propanamide] | 6.25 ± 0.21 mm | 6.0 ± 0.57 mm | 5.50 ± 0.42 mm | 5.10 ± 0.14 mm | 6.40 ± 0.79 mm | 5.73 ± 0.38 mm | 5.44 ± 0.28 mm | 4.97 ± 0.42 mm | 6.23 ± 0.25 mm | 5.80 ± 0.26 mm | 5.27 ± 0.15 mm | 4.67 ± 0.38 mm | 19.6% | 6.53% | 3.78% | 21.8% | 26.4% | 12.6% | 34.2% | 28.6% | inhibition in vivo at 10 mg/kg [1, 23]: 25.1%; inhibition in vivo at 2.5 mg/kg [1, 24]: 44.7%; inhibition in vivo at 5 mg/kg [1, 25]: 42.5%; inhibition in vivo at 10 mg/kg [1, 26]: 47 to 54%; Relative organ weight, heart [2]: 0.31 ± 0.03; Relative organ weight, kidney [2]: 0.32 ± 0.06; Relative organ weight, liver [2]: 2.85 ± 0.17; Relative organ weight, stomach [2]: 0.50 ± 0.05; inhibition at 10 µM (5-LOX): 47 ± 4.32%; IC50 (5-LOX): 9.52 ± 1.51 µM |
